Results taken from patent US20260174778A1, “SULFONAMIDE COMPOUND, AND PREPARATION METHOD THEREFOR AND USE THEREOF” (SHANGHAI HENLIUS BIOTECH, INC., priority 2023, published 2026).

Test system: breast cancer cell line ZR-75-1
Test: Inhibition of proliferation of breast cancer cell line ZR-75-1 (CellTiter-Glo)
Type: cell-based
Details: Homo sapiens, 240 h, proliferation of ZR-75-1 cells, 10 days of incubation, read-out: IC50 (KAT6A)

Structure (SMILES) | IC50
COc1ccc2c(c1S(=O)(=O)Nc1noc3cc(Cn4cccn4)c(F)c(OC)c13)OCCO2 [Compound 28, N-(6-((1H-Pyrazol-1-yl)methyl)-5-fluoro-4-methoxybenzo[d]isoxazol-3-yl)-6-methoxy-2,3-dihydrobenzo[b][1,4]dioxine-5-sulfonamide] | < 0.5 nM
COc1ccc2c(c1S(=O)(=O)Nc1noc3cc(Cn4cccn4)c(F)c(OC)c13)OCCC2=O [Compound 42, N-(6-((1H-Pyrazol-1-yl)methyl)-5-fluoro-4-methoxybenzo[d]isoxazol-3-yl)-7-methoxy-4-oxochromane-8-sulfonamide] | < 0.5 nM
COc1ccc2c(c1S(=O)(=O)Nc1noc3cc(Cn4cccn4)c(F)c(OC)c13)OCC=C2 [Compound 101, N-(6-((1H-Pyrazol-1-yl)methyl)-5-fluoro-4-methoxybenzo[d]isoxazol-3-yl)-7-methoxy-2H-chromene-8-sulfonamide] | < 0.5 nM

The remaining lines, values ahead:

IC50 | Structure (SMILES)
< 0.5 nM | COc1ccc2c(c1S(=O)(=O)Nc1noc3cc(Cn4cccn4)c(F)c(OC)c13)OCCN2C [Compound 109, N-(6-((1H-Pyrazol-1-yl)methyl)-5-fluoro-4-methoxybenzo[d]isoxazol-3-yl)-7-methoxy-4-methyl-3,4-dihydro-2H-benzo[b][1,4]oxazine-8-sulfonamide]
0.5 to 2 nM | COc1ccccc1S(=O)(=O)Nc1noc2cc(Cn3cccn3)cc(OC)c12 [PF-8144, reference compound]
